Test results reported in paper PMC11982978, “Cancer hotspot mutations rewire ERK2 specificity by selective exclusion of docking interactions” (The Journal of Biological Chemistry, 2025).

Tests used:
ERK2 WT = target: T1, ERK2 WT (Mus musculus, UniProt P63085); test: Competitive peptide kinase assay (D-peptide inhibition), ERK2 WT; assay type: biochemical; settings: Table 2, 5 μM D-site dependent reporter peptide, 10 nM ERK2, 10 μM ATP, pH 7.4, fluorescence, mean of three independent replicates
T1 construct: His6; made in house; host or cells: E. coli BL21(DE3), co-expressed with GST-MEK1ΔN3
T1 sequence (P63085 whole entry): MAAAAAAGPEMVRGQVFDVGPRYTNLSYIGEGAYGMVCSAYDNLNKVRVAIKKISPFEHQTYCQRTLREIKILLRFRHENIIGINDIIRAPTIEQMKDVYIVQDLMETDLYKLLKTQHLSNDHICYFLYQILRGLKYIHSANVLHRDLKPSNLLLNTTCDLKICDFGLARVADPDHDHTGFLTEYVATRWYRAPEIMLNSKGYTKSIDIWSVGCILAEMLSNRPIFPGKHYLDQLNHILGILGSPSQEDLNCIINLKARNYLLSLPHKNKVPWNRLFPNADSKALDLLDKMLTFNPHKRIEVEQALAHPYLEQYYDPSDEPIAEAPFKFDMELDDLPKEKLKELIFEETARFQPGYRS
Protocol: We determined relative binding affinities for D-peptides from their potency as competitive inhibitors of WT or mutant ERK2 activity on a D-site-dependent reporter substrate peptide (Table S1, Fig. 3A, S3).
Competitive peptide kinase assays were performed with a D-site dependent MAPK reporter substrate peptide (AssayQuant Technologies Inc, #AQT0376) as we reported previously ([15]). Briefly, 5 μM of reporter peptide was mixed with various concentrations of D-peptides in reaction buffer (54 mM HEPES [pH 7.4], 1.2 mM DTT, 0.01% Brij-35, 1% glycerol, 0.2 mg/ml BSA, and 10 mM MgCl2). […] Phosphorylation of the reporter peptide was measured by fluorescence (λex 360 nm, λem 485 nm) in 90 s intervals over 21 min in a Spectra M5 plate reader. Rates were calculated from the linear portion of the reaction progress curve, and data were normalized to maximum (samples lacking competitor peptide) and minimum (control reactions lacking kinase) values. Normalized rates were plotted against D-peptide concentration and fitted into a sigmoidal dose-response curve to determine the IC50 values using GraphPad Prism (Version 9.3.0).

WT ERK2 = settings: selective conditions (-His); hits Z > 3; average of three screens; cited from earlier work
Excerpt: Supplement mmc2.xlsx, sheet "WT Hits" | column: Z-score

ERK2 E320K = test: Y2H D-site library screen, ERK2 E320K; assay type: cell-based, rat; parameters: key to ES, +His / ES, -His: ES = slope of ln(Ft/F0) vs number of yeast population doublings
Excerpt: (§1) To examine how cancer-associated CD site mutations affect the scope of ERK2 docking interactions, we adopted a Y2H strategy that we previously applied to define the D-site interactome of WT ERK2 ([15]). This system reports on interactions between ERK2 and a fragment of its substrate ELK1 that harbors a docking site essential for binding (Fig. 1C). The system thus evaluates the binding of potential sequences by substituting them for the native ELK1 docking site. We transformed Y2H strains with a bait plasmid expressing the Gal4 DNA-binding domain (DBD) fused to WT or CD mutant forms of rat ERK2 (R133K, D319N or E320K, equivalent respectively to human R135K, D321N and E322K), along with a prey plasmid expressing Gal4 activation domain (AD) fused to the ELK1 fragment harboring various docking site sequences. We then assayed these strains for growth on solid media under non-selective (+His) and selective conditions (−His) to detect interactions (Fig. 1D).
(§2) We previously used the Y2H system to screen WT ERK2 against a pooled library of 11,756 ELK1 variants incorporating potential docking sites from the human proteome ([15]). To identify interacting sequences either gained or lost upon ERK2 CD site mutation, we screened the same library against ERK2^D319N and ERK2^E320K. Yeast expressing ERK2 mutant bait plasmids were transformed with the ELK1 library pool and subjected to competitive growth under selective (−His) and non-selective conditions (+His) in parallel. Cultures were sampled periodically over ∼7 population doublings. The DNA sequence encoding the variable docking site region was PCR amplified and analyzed by next-generation sequencing (Fig. 2A, Dataset S1). The change in sequence abundance over time was fitted to an exponential function to assign an enrichment score (ES) to each docking site, where a higher ES indicates a greater increase in sequence abundance as the population grows. A significant enrichment of docking site sequences was observed only under selective conditions (Figs. 2B, S1). For each mutant, we observed generally good reproducibility across three independently conducted screens albeit with some sequences enriched in only a single replicate (Fig. S2, A and B). Average ES scores for the E320K and D319N mutant screens were better correlated with each other (R = 0.83) than were average ES scores for either mutant compared to WT ERK2 (R = 0.67 for WT versus D319N, R = 0.63 for WT versus E320K) (Fig. S2C).
(§3) To compare sequences selected by CD mutants with those selected by WT ERK2, we defined those sequences with an ES equal to or higher than three standard deviations from the mean (Z > 3) as hits. Using this cutoff, we obtained 121, 127, and 153 hits sequences from the WT, D319N, and E320K screens, respectively (Fig. 2C, Dataset S2).
(§4) Yeast harboring pGBT9-ERK2^E320K or pGBT9-ERK2^D319N were transformed with the pGADGH-ELK1 D-site library plasmid pool. Transformants (10–40 colonies per library component) were suspended in SD-Leu-Trp media, diluted to an OD600 of 0.1, and cultured in a shaking incubator at 30 °C to an OD600 of 1.0. The resulting culture was used to initiate a competitive selection screen. Cell growth, sample collection and data analysis were performed exactly as described previously for WT ERK2 ([15]). The frequency (F) of each D-site sequence at a given time point (t) was calculated by dividing the number of reads by the total read count for all sequences. For each sequence, a plot of ln(Ft/F0) as a function of the number of yeast population doublings was fit to a line, and the enrichment score (ES) for that sequence was defined as the slope of this line. Illumina sequencing reads, calculated ES, and Z scores for each screen are provided in Dataset S1.

ERK2 D319N = test: Y2H D-site library screen, ERK2 D319N; assay type: cell-based, rat; parameters: key to ES, +His / ES, -His: ES = slope of ln(Ft/F0) vs number of yeast population doublings
Excerpt: as §1, §2, §3, §4

[1] = Average of 3 Replicate Experiments, non-selective
[2] = Average of 3 Replicate Experiments, selective
[3] = Average of 3 Replicate Screens, non-selective
[4] = Average of 3 Replicate Screens, selective

## CC[C@H](C)[C@H](NC(=O)[C@H](C)NC(=O)[C@@H](N)Cc1ccc(O)cc1)C(=O)N[C@@H](CCCNC(=N)N)C(=O)N[C@@H](C)C(=O)N[C@@H](CCCNC(=N)N)C(=O)N[C@@H](CCCNC(=N)N)C(=O)N[C@@H](CCC(N)=O)C(=O)N[C@@H](CC(C)C)C(=O)N1CCC[C@H]1C(=O)N[C@@H](CCCNC(=N)N)C(=O)N[C@@H](CC(C)C)C(=O)N[C@@H](C)C(=O)N[C@H](C(=O)N[C@@H](CO)C(=O)N[C@@H](CC(=O)O)C(=O)O)C(C)C [ISG20 peptide G6Q]
ERK2 WT
  IC50: 41 µM

## RKKKLTMRPLVLQK [MAP3K19, D-site 14-mer in ELK1 Y2H prey]
WT ERK2
  Z-score (ES) of hit sequences, WT ERK2 Y2H screen: 3.59

## EKVKRKKNVLRLCC [PRAME, D-site 14-mer in ELK1 Y2H prey]
WT ERK2
  Z-score (ES) of hit sequences, WT ERK2 Y2H screen: 4.69

## TYRPKRPTTLNLFP [MAPK8IP1, D-site 14-mer in ELK1 Y2H prey]
WT ERK2
  Z-score (ES) of hit sequences, WT ERK2 Y2H screen: 3.22

## KRWLRKPRPVSLFS [GTF3C1, D-site 14-mer in ELK1 Y2H prey]
WT ERK2
  Z-score (ES) of hit sequences, WT ERK2 Y2H screen: 5.35

## RRRGTRPPLLALLA [ROR1, D-site 14-mer in ELK1 Y2H prey]
WT ERK2
  Z-score (ES) of hit sequences, WT ERK2 Y2H screen: 4.89

## KKFRHRPEPLFIPP [TRERF1, D-site 14-mer in ELK1 Y2H prey]
WT ERK2
  Z-score (ES) of hit sequences, WT ERK2 Y2H screen: 19.05

## KKARGKPVRLRLSS [MELK, D-site 14-mer in ELK1 Y2H prey]
WT ERK2
  Z-score (ES) of hit sequences, WT ERK2 Y2H screen: 7.57

## SGMRARRGLLRLPR [B4GALT5, D-site 14-mer in ELK1 Y2H prey]
WT ERK2
  Z-score (ES) of hit sequences, WT ERK2 Y2H screen: 5.95

## KCSRKKKPKLSLKA [L3MBTL3, D-site 14-mer in ELK1 Y2H prey]
WT ERK2
  Z-score (ES) of hit sequences, WT ERK2 Y2H screen: 10.66

## RQIRASKGIVVLEE [KANSL1L, D-site 14-mer in ELK1 Y2H prey]
ERK2 E320K; [1]
  ES, +His: -0.008476
  Z-Score, +His: -0.2637
ERK2 E320K; [2]
  ES, -His: -0.1355
  Z-Score, -His: -0.3259
ERK2 E320K; Experiment 1, non-selective
  ES, +His: 0.001097
ERK2 E320K; Experiment 1, selective
  ES, -His: -0.1358
ERK2 E320K; Experiment 2, non-selective
  ES, +His: -0.005884
ERK2 E320K; Experiment 2, selective
  ES, -His: -0.07688
ERK2 E320K; Experiment 3, non-selective
  ES, +His: -0.02064
ERK2 E320K; Experiment 3, selective
  ES, -His: -0.1937
ERK2 D319N; [3]
  ES, +His: -0.009508
  Z-Score, +His: -0.257
ERK2 D319N; [4]
  ES, -His: -0.1275
  Z-Score, -His: -0.06943
ERK2 D319N; Experiment 1, non-selective
  ES, +His: -0.002763
ERK2 D319N; Experiment 1, selective
  ES, -His: -0.1582
ERK2 D319N; Experiment 2, non-selective
  ES, +His: -0.0144
ERK2 D319N; Experiment 2, selective
  ES, -His: -0.1186
ERK2 D319N; Experiment 3, non-selective
  ES, +His: -0.01136
ERK2 D319N; Experiment 3, selective
  ES, -His: -0.1057

## PWRTTKPQPLVLSQ [PROX2, D-site 14-mer in ELK1 Y2H prey]
WT ERK2
  Z-score (ES) of hit sequences, WT ERK2 Y2H screen: 3.19

## QLPPRKLPTLKLTP [MTX3, D-site 14-mer in ELK1 Y2H prey]
WT ERK2
  Z-score (ES) of hit sequences, WT ERK2 Y2H screen: 3.25

## PPVKKKPKLLNLKD [SIN3A, D-site 14-mer in ELK1 Y2H prey]
WT ERK2
  Z-score (ES) of hit sequences, WT ERK2 Y2H screen: 4.29

## LRPLRPKPPLLLPK [RREB1, D-site 14-mer in ELK1 Y2H prey]
WT ERK2
  Z-score (ES) of hit sequences, WT ERK2 Y2H screen: 9.18

## PKRKEPGRSLRIKV [DNAJC27, D-site 14-mer in ELK1 Y2H prey]
WT ERK2
  Z-score (ES) of hit sequences, WT ERK2 Y2H screen: 6.00

## KKRKKKRLVINLSS [TTLL6, D-site 14-mer in ELK1 Y2H prey]
WT ERK2
  Z-score (ES) of hit sequences, WT ERK2 Y2H screen: 10.00

## PDRKAKPTPLDLRN [GAB2, D-site 14-mer in ELK1 Y2H prey]
WT ERK2
  Z-score (ES) of hit sequences, WT ERK2 Y2H screen: 7.63

## MQKKIKIPKLSLNH [BEND5, D-site 14-mer in ELK1 Y2H prey]
WT ERK2
  Z-score (ES) of hit sequences, WT ERK2 Y2H screen: 3.94
